For 2 molecules, IC50 results are on record in ChEMBL document CHEMBL5727277, “Heteroarylcarboxamide derivatives as plasma kallikrein inhibitors” (2019).

SMILES strings stand for the structures.

The assay has as its target Plasma kallikrein (Homo sapiens, UniProt P03952). Kind of assay: Subsequently, PPACK II (Calbiochem) was added as a stop solution to achieve a final concentration of 1 μM and fluorescence was measured using an Envision Reader (PerkinElmer) with the wavelength excitation setting of 355 nm and the wavelength emission setting of 460 nm.Evaluation of the Inhibition of Human KLKB1 in Dextransulfat Activated Human PPP.Platelet poor plasma (PPP) obtained from human wholeblood, anticoagulated with EDTA, was activated with 12.5 μg/mL dextransulfate for 7 min on ice. The activated PPP was incubated with various concentrations of the test compound in assay buffer. […] Measurements were performed in a kinetic interval every 2nd minute for 16 min using a Spectramax M5 (Molecular Devices) with the following settings of the wavelength excitation of 350 nm and wavelength emission of 450 nm.

Plasma kallikrein, sequence (P03952 20-390 limits assumed): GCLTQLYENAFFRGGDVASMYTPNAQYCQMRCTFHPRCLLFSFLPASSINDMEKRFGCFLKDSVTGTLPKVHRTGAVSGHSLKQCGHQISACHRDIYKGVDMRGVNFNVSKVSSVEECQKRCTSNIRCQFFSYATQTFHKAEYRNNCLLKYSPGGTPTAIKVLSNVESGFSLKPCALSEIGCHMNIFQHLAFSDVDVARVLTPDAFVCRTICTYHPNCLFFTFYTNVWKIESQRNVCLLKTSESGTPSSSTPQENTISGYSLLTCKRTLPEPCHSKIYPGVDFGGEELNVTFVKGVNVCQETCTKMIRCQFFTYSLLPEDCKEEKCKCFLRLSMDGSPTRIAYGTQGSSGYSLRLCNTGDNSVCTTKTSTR
Plasma kallikrein, sequence (P03952 391-638 limits assumed): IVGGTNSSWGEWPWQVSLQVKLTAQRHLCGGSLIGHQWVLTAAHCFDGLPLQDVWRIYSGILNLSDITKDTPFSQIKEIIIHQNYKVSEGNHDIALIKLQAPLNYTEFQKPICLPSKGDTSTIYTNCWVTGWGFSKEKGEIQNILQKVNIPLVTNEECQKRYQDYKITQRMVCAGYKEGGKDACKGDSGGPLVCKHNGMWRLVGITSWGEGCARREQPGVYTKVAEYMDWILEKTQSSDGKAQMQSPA

`Cc1ccc2cc(Cn3cc(C(=O)N[C@H]4CCc5c4ccnc5N)nn3)ccc2n1` returned a concentration for half-maximal inhibition (IC50) of 1900 nM.
Then `Cc1ccc2cc(Cn3cc(C(=O)N[C@@H]4CCc5c4ccnc5N)nn3)ccc2n1`, with 36 nM.

Broadly, the IC50 is the point on the concentration scale where inhibition reaches its midpoint.
